Here are results for four molecules from patent US11273217B2, “Cancer treatment composition combining anti-CD26 antibody and other anticancer agent” (Y's AC Co., Ltd., priority 2015, dated 2022).

Like-named read-outs stand apart in the source and are kept apart here.

Common to all, as to assay type: cell-based
Data set [1] has as its system Jurkat CD26(−) (T-cell leukemia cell line). Nature of the data set: WST-1 cytotoxicity assay, Jurkat CD26(−). The following applies: 48 hours. The source says:
(§1) A CD26-negative malignant mesothelioma cell line MSTO-211H (MSTO) (American Type Cell Culture Collection, Manassas, Va.) was transfected with CD26 gene, which was designated as MSTO clone 12 (Aoe K et al., Clin Cancer Res. (2012) 18: 1447-56). A CD26-negative T-cell leukemia cell line Jurkat (American Type Cell Culture Collection, Manassas, Va.) was transfected with CD26 gene, which was designated as Jurkat CD26(+) (Tanaka T et al., Proc Natl Acad Sci USA (1993) 90: 4586-90). A CD26-positive cell line JMN established from malignant mesothelioma was kindly provided by professor Chikao Morimoto, the Institute of Medical Science, the University of Tokyo. All the cell lines were cultured in RPMI medium (catalog No. 11875-093, Life Technologies Corp., Carlsbad, Calif.) containing 10% heat-inactivated fetal bovine serum (FBS, Life Technologies Corp., Carlsbad, Calif.), ABPC (100 μg/ml), and streptomycin (100 μg/ml) at 37° C. under 5% CO2 environment.
(§2) WST-1 assay was conducted according to the manual provided by the manufacturer. The background absorbance of each sample at 630 nm was subtracted from the measurement value thereof at 450 nm. The experiment was conducted in triplicate, and typical results are shown.
In general terms: Tetrazolium assays rely on reduction of a dye to a coloured formazan, in cell work by metabolically active cells.

The subject of data set [2] is Jurkat CD26(+) (T-cell leukemia cell line). As to the kind of experiment: WST-1 cytotoxicity assay, Jurkat CD26(+). The following applies: 48 hours.
From the text: as §1
(§3) WST-1 assay was conducted according to the manual provided by the manufacturer. The background absorbance of each sample at 630 nm was subtracted from the measurement value thereof at 450 nm.

In data set [3] the test system is MSTO clone 12 (CD26-positive malignant mesothelioma cell line). As to the kind of experiment: WST-1 cytotoxicity assay, MSTO clone 12.
From the text: as §1, §3

Data set [4] deals with JMN (CD26-positive malignant mesothelioma cell line). As to the kind of experiment: WST-1 cytotoxicity assay, JMN. The following applies: 48 hours.
From the text: as §1, §3

Data set [5] concerns MSTO-wt (CD26-negative malignant mesothelioma cell line MSTO-211H). As to the kind of experiment: WST-1 cytotoxicity assay, MSTO wt. The following applies: 48 hours.
From the text: as §1, §2

For data set [6], the system named is H2452 cells. Nature of the data set: Boyden chamber invasion assay, H2452. The following applies: 24 hours; for action on cell invasion (in words): cisplatin at 10 and 30 μM, pemetrexed even at 30 μM. The method, then:
(§4) MESO1 cells or H2452 cells (2.5×10^4 cells/well) were inoculated to a Boyden chamber. One hour later, cisplatin (5, 10, or 30 μM) or pemetrexed (1, 10, or 30 μM) was added thereto (n=5), followed by Boyden chamber invasion assay. 24 hours after the cell inoculation, invasive cells were stained with Diff-Quik-staining kit. Significant difference was tested by two-tailed t-test (vs Cont).
(§5) MESO1 cells or H2452 cells (2.5×10^4 cells/well) were inoculated to a Boyden chamber. One hour later, the combination of cisplatin (0, 3, or 10 μM) and pemetrexed (0, 10, or 30 μM) was added thereto (n=5), followed by Boyden chamber invasion assay. 24 hours after the cell inoculation, invasive cells were stained with Diff-Quik-staining kit. Significant difference was tested by two-tailed t-test (vs Cont).
H2452 cells (2.5×10^4 cells/well) were inoculated to a Boyden chamber. One hour later, the combination of cisplatin (0, 3, or 10 μM) and YS110 (0, 10, or 20 μg/ml) was added thereto (n=5), followed by Boyden chamber invasion assay. 24 hours after the cell inoculation, invasive cells were stained with Diff-Quik-staining kit. Significant difference was tested by two-tailed t-test (vs Cont). Next, the interaction of YS110 with cisplatin-pemetrexed concomitant use was studied. The interaction was analyzed by two-way ANOVA.

In data set [7] the test system is H2452 cells. As to the kind of experiment: MTT cell growth assay, H2452. The following applies: 10^−9 to 10^−4 M; day 2. On the procedure: (§6) MESO1 or H2452 cells (2×10^3 cells/well) were inoculated to a 96-well plate. One hour later, cisplatin or pemetrexed was added thereto at 10^−9, 10^−8, 10^−7, 10^−6, 10^−5, or 10^−4 M (n=6). At day 2, MTT assay was conducted.
H2452 cells (2×10^3 cells/well) were inoculated to a 96-well plate. One hour later, the combination of 0.03, 0.3, or 1 μM cisplatin and 0.1, 3, or 10 μg/ml YS110, or the combination of 0.01, 0.1, or 0.3 μM pemetrexed and 0.1, 3, or 10 μg/ml YS110 was added thereto (n=6). At day 2, MTT assay was conducted. Significant difference was tested by two-tailed t-test (vs Cont).
(§7) MESO1 cells (2×10^3 cells/well) or H2452 cells (2×10^3 cells/well) were inoculated to a 96-well plate. One hour later, 0.3 μM cisplatin-0.1 μM pemetrexed combination, or YS110 (10 μg/ml) plus the 0.3 μM cisplatin-0.1 μM pemetrexed combination was added thereto (n=6). At day 2, MTT assay was conducted. Significant difference was tested by two-tailed t-test (vs Cont).
(§8) Gemcitabine was studied for its effect on the growth of a mesothelioma cell line. A mesothelioma cell line MESO1, JMN, H2452, or H226 (2×10^3 cells/well) was inoculated to a 96-well plate. One hour later, gemcitabine (10^−9, 10^−8, 10^−7, 10^−6, 10^−5, or 10^−4 M) was added thereto (N=6). 2 days later, MTT assay was conducted. Significant difference was tested by two-tailed t-test (vs Cont).
H2452 cells (2×10^3 cells/well) were inoculated to a 96-well plate. One hour later, gemcitabine (0, 10^−8, 3×10^−8, or 10^−7 M) and YS110 (0, 1, 3, or 10 μg/ml) were added thereto in combination. At day 2, MTT assay was conducted. Significant difference was tested by two-tailed t-test (vs Cont). Next, interaction in concomitant use of medications was studied (n=6). The interaction between YS110 and gemcitabine used concomitantly was analyzed by two-way ANOVA.
(§9) MESO1, JMN, H2452 or H226 cells (2×10^3 cells/well were inoculated to a 96-well plate. One hour later, 3×10^−8 M or 10^−7 M gemcitabine was added thereto by concomitant use with the combination of cisplatin (0, 0.1, 0.3, or 1 μM) and pemetrexed (0, 0.03, 0.1, or 0.3 μM) (n=6). At day 2, MTT assay was conducted.
(§10) The growth inhibitory effect of gemcitabine (10^−9 to 10^−4 M) was compared using MESO1, H2452, JMN, and H226 cell lines.

In data set [8] the test system is JMN cells. As to the kind of experiment: MTT cell growth assay, JMN. The following applies: MESO1 (CD9+) vs JMN (CD9−); 10^−9 to 10^−4 M. The method, then: as §8
JMN cells (2×10^3 cells/well) were inoculated to a 96-well plate. One hour later, gemcitabine (0, 3×10^−10, 10^−9, or 3×10^−8 M) and YS110 (0, 1, 3, or 10 μg/ml) were added thereto in combination. At day 2, MTT assay was conducted. Significant difference was tested by two-tailed t-test (vs Cont). Next, interaction in concomitant use of medications was studied (n=6). The interaction between YS110 and gemcitabine used concomitantly was analyzed by two-way ANOVA.
as §9
(§11) The growth inhibitory effects of cisplatin (10^−9 to 10^−4 M) and pemetrexed (10^−9 to 10^−4 M) were compared using the MESO1 and JMN cell lines.
as §10

Data set [9] concerns MESO1 cells. As to the kind of experiment: Boyden chamber invasion assay, MESO1. The following applies: 24 hours; for action on cell invasion (in words): cisplatin at 10 and 30 μM, pemetrexed even at 30 μM. The method, then:
as §4, §5
MESO1 cells (2.5×10^4 cells/well) were inoculated to a Boyden chamber. One hour later, the combination of cisplatin (0, 3, or 10 μM) and YS110 (0, 10, or 20 μg/ml) was added thereto (n=5), followed by Boyden chamber invasion assay. 24 hours after the cell inoculation, invasive cells were stained with Diff-Quik-staining kit. Significant difference was tested by two-tailed t-test (vs Cont). Next, the interaction of YS110 with cisplatin-pemetrexed concomitant use was studied. The interaction was analyzed by two-way ANOVA.

For data set [10], the system named is MESO1 cells. Nature of the data set: MTT cell growth assay, MESO1. The following applies: 10^−9 to 10^−4 M; day 2. On the procedure:
as §6
MESO1 cells (2×10^3 cells/well) were inoculated to a 96-well plate. One hour later, the combination of 0.3, 3, or 10 μM cisplatin and 0.1, 3, or 10 μg/ml YS110, or the combination of 0.03, 0.3, or 1 μM pemetrexed and 0.1, 3, or 10 μg/ml YS110 was added thereto. At day 2, MTT assay was conducted. Significant difference was tested by two-tailed t-test (vs Cont).
as §7, §8
MESO1 cells (2×10^3 cells/well) were inoculated to a 96-well plate. One hour later, gemcitabine (0, 10^−8, 3×10^−8, or 10^−7 M) and YS110 (0, 1, 3, or 10 μg/ml) were added thereto in combination. At day 2, MTT assay was conducted. Significant difference was tested by two-tailed t-test (vs Cont). Next, interaction in concomitant use of medications was studied (n=6). The interaction between YS110 and gemcitabine used concomitantly was analyzed by two-way ANOVA.
as §9, §11, §10

The mark [11] stands for this setting: pemetrexed even at 30 μM with cisplatin 10 μM.

With `CC(C)[C@]12O[C@H]1[C@@H]1O[C@@]13C1(C)CCC4=C(COC4=O)[C@@H]1C[C@@H]1O[C@@]13[C@@H]2O` (stereo partly drawn) [Triptolide, (3bS,4aS,5aS,6R,6aR,7aS,7bS,8aS,8bS)-6-hydroxy-6a-isopropyl-8b-methyl-3b,4,4a,6,6a,7a,7b,8b,9,10-decahydrotrisoxireno[6,7:8a,9:4b,5]phenanthro[1,2-c]furan-1(3H)-one], the IC50 – broadly, the concentration that gives 50% inhibition – in data set [1] (Homo sapiens, Jurkat (−)) was above 100 nM; in data set [2] (Homo sapiens, Jurkat CD26 (+)), 6 nM; in data set [3] (MSTO clone12, CD26 (+), 48 hours, read-out: IC50), 10 nM; in [4] (CD26 (+)), 15 nM; in [5] (Homo sapiens, MSTO-211H, MSTO wt, CD26 (−)) it was 10 nM. The “cytotoxicity (in words)” value in [1] (Jurkat) is “dose-dependent toxic effect”; in data set [2] (Jurkat CD26(+)), “dose-dependent toxic effect”; in data set [3] (MSTO clone 12, 48 hours), “dose-dependent toxic effect”; in data set [4] it was “dose-dependent toxic effect”; in data set [5] (MSTO-wt), “dose-dependent toxic effect”.
As for `Nc1nc2[nH]cc(CCc3ccc(C(=O)N[C@@H](CCC(=O)O)C(=O)O)cc3)c2c(=O)[nH]1` [pemetrexed], the “action on cell invasion (in words)” value in data set [6] and in [9] was “no inhibitory action on invasion” each time. The “effect of pemetrexed on the cell invasion inhibitory effect of cisplatin” value in [6] (setting [11]) and in data set [9] (setting [11]) was “did not potentiate” each time. Besides, the “cell growth, single drug dose-response (in words)” value in data set [7] and in [10] was “suppressed the growth” in each case. Further, in data set [8], the “growth inhibitory effect compared between MESO1 and JMN” value is “did not differ”.
As to `N.N.[Cl][Pt][Cl]` [cisplatin], the “action on cell invasion (in words)” value in data set [6] and in data set [9] was “suppressed cell invasion” throughout. The “cell growth, single drug dose-response (in words)” value in [7] and in data set [10] was “suppressed the growth” each time. For the same molecule, in data set [8], the “growth inhibitory effect compared between MESO1 and JMN” value is listed as “did not differ”.

B1: Y-TR1 SPDP (conjugate)
heavy: EVQLVESGAGVKQPGGTLRLTCTASGFSLTTYGVHWVRQAPGKGLEWVGVIWGDGRTDYDAAFMSRVTISKDTSKSTVYLQMNSLRAEDTAVYYCMRNRHDWFDYWGQGTTVTVSSASTKGPSVFPLAPSSKSTSGGTAALGCLVKDYFPEPVTVSWNSGALTSGVHTFPAVLQSSGKLSSVVTVPSSSLGTQTYICNVNHKPSNTKVDKKVEPKSCDKTHTCPPCPAPELLGGPSVFLFPPKPKDTLMISRTPEVTCVVVDVSHEDPEVKFNWYVDGVEVHNAKTKPREEQYNSTYRVVSVLTVLHQDWLNGKEYKCKVSNKALPAPIEKTISKAKGQPREPQVYTLPPSRDELTKNQVSLTCLVKGFYPSDIAVEWESNGQPENNYKTTPPVLDSDGSFFKKLTVDKSRWQQGNVFSCSVMHEALHNHYTQKSLSLSPGK
light: DILLTQSPSSLSATPGERATITCRASQGIRNNLNWYQQKPGQAPRLLIYYSSNLQSGVPSRFSGSGSGTDFTLTISRLQPEDVAAYYCQQSIKLPFTFGSGTKVEIKRTVAAPSVFIFPPSDEQLKSGTASVVCLLNNFYPREAKVQWKVDNALQSGNSQESVTEQDSKDSTYSLSSTLTLSKADYEKHKVYACEVTHQGLSSPVTKSFNRGEC
For B1, the IC50 in [3] (MSTO clone12, CD26 (+), 48 hours) is 38 µg/mL; in [3] (Table 5: comparison among 3 types of linkers, MSTO clone 12), 35 µg/mL.
